Source: ChEMBL document CHEMBL4706551, “Rational design of new multitarget histamine H receptor ligands as potential candidates for treatment of Alzheimer's disease” (Eur J Med Chem, 2020)
pIC50: −log10 of the molar value. The source made the active and inactive calls.

Tests used:
MAO-A = molecular target: T1, MAO-A (Homo sapiens, UniProt P21397); assay: Inhibition of recombinant human MAO-A expressed in baculovirus infected BTI cells at 10 uM using p-tyramine as substrate by fluorometric assay relative to control; conditions: probe p-tyramine
T1 sequence (P21397 whole entry): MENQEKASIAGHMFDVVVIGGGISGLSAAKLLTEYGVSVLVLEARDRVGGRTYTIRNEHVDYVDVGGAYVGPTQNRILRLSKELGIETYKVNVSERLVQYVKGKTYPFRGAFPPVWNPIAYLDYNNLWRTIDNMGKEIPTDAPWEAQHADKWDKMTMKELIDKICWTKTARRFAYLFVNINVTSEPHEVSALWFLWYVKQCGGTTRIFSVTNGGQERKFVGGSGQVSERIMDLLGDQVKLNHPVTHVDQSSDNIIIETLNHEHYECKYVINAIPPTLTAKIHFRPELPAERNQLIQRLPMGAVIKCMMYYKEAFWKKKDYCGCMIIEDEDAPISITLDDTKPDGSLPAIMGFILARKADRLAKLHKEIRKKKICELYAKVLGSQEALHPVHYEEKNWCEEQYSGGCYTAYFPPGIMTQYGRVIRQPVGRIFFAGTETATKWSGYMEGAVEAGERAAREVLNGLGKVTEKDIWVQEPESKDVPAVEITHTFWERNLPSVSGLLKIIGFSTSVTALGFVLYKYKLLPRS

Acetylcholinesterase [1] = molecular target: Acetylcholinesterase (Homo sapiens, UniProt P22303); assay: Inhibition of recombinant human AChE using ATCI as substrate incubated for 5 mins followed by substrate addition and measured after 5 mins by spectrophotometric based Ellman's method
Sequence of Acetylcholinesterase (Homo sapiens, UniProt P22303) (P22303 whole entry): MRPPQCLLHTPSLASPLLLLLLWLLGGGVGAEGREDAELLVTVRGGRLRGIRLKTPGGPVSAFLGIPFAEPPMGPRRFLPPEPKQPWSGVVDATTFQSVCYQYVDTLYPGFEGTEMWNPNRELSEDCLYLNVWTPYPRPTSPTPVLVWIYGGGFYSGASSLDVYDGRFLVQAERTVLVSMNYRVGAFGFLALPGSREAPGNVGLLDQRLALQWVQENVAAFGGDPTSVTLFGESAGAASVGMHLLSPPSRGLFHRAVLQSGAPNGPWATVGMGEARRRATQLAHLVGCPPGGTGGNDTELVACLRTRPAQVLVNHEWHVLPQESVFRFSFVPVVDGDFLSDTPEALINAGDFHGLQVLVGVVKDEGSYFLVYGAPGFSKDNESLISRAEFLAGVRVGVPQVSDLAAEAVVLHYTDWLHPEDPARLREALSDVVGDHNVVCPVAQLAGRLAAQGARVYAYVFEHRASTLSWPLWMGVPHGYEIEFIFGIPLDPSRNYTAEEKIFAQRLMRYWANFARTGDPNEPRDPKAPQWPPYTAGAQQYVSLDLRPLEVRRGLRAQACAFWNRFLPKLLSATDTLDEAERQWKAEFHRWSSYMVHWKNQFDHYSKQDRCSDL

Mus musculus [2] = assay: Analgesic activity in formalin-induced nociception CD-1 mouse model assessed as reduction in pain behaviour by measuring less licking of formalin injected hind paw compound administered intraperitoneally prior to formalin induction and measured during late phase (15 to 30 mins after formalin injection) by formalin test; format: functional; conditions: CD-1, ip, time 15-30 min
Rattus norvegicus [3] = assay: Antiinflammatory activity against Wistar (Krf:WI) rat assessed as reduction in carragenan-induced paw edema at 22.5 mg/kg treated prior to carrageenan challenge and measured after 1 hr by plethysmometry relative to control; format: functional
Rattus norvegicus [4] = assay: Antiinflammatory activity against Wistar (Krf:WI) rat assessed as reduction in carragenan-induced paw edema at 22.5 mg/kg treated prior to carrageenan challenge and measured after 2 hrs by plethysmometry relative to control; format: functional
Rattus norvegicus [5] = assay: Antiinflammatory activity against Wistar (Krf:WI) rat assessed as reduction in carragenan-induced paw edema at 22.5 mg/kg treated prior to carrageenan challenge and measured after 3 hrs by plethysmometry relative to control; format: functional
Rattus norvegicus [6] = assay: Antiinflammatory activity against Wistar (Krf:WI) rat assessed as reduction in carragenan-induced paw edema at 22.5 mg/kg treated prior to carrageenan challenge and measured after 6 hrs by plethysmometry relative to control; format: functional
Rattus norvegicus [7] = assay: Antiinflammatory activity against Wistar (Krf:WI) rat assessed as reduction in carragenan-induced paw edema at 30 mg/kg treated prior to carrageenan challenge and measured after 1 hr by plethysmometry relative to control; format: functional
Rattus norvegicus [8] = assay: Antiinflammatory activity against Wistar (Krf:WI) rat assessed as reduction in carragenan-induced paw edema at 30 mg/kg treated prior to carrageenan challenge and measured after 2 hrs by plethysmometry relative to control; format: functional
Rattus norvegicus [9] = assay: Antiinflammatory activity against Wistar (Krf:WI) rat assessed as reduction in carragenan-induced paw edema at 30 mg/kg treated prior to carrageenan challenge and measured after 3 hrs by plethysmometry relative to control; format: functional
Rattus norvegicus [10] = assay: Antiinflammatory activity against Wistar (Krf:WI) rat assessed as reduction in carragenan-induced paw edema at 30 mg/kg treated prior to carrageenan challenge and measured after 6 hrs by plethysmometry relative to control; format: functional
Rattus norvegicus [11] = assay: Antiinflammatory activity against Wistar (Krf:WI) rat assessed as reduction in carragenan-induced paw edema at 30 mg/kg treated prior to carrageenan challenge and measured after 24 hrs by plethysmometry relative to control; format: functional
Rattus norvegicus [12] = assay: Analgesic activity in Wistar (Krf:WI) rat assessed as inhibition of carrageenan-induced mechanical inflammatory hyperalgesia by measuring paw withdrawl threshold at 30 mg/kg treated prior to carrageenan challenge and measured after 3 to 24 hrs (reference value: 88.4 to 90.9 %); format: functional; parameters: scale not given: the % may be the effect or the level left; conditions: time 3-24 hrs
Rattus norvegicus [13] = assay: Analgesic activity in Wistar (Krf:WI) rat assessed as inhibition of carrageenan-induced mechanical inflammatory hyperalgesia by measuring paw withdrawl threshold at 22.5 mg/kg treated prior to carrageenan challenge and measured upto 24 hrs (reference value: 88.4 to 90.9 %); format: functional; parameters: scale not given: the % may be the effect or the level left; conditions: time hrs <=24
Rattus norvegicus [14] = assay: Analgesic activity in carragenan-induced thermal hyperalgesia model of Wistar (Krf:WI) rat assessed as latency of nociceptive response for radiant heat stimulation at 30 mg/kg treated prior to carrageenan challenge and measured after 1 hr (reference value: 71.4%); format: functional
Rattus norvegicus [15] = assay: Analgesic activity in carragenan-induced thermal hyperalgesia model of Wistar (Krf:WI) rat assessed as latency of nociceptive response for radiant heat stimulation at 30 mg/kg treated prior to carrageenan challenge and measured after 24 hrs (reference value: 83.3%); format: functional
Mus musculus [16] = assay: (§1) Antiallodynic activity in oxaliplatin-induced peripheral neuropathy pain CD-1 mouse model assessed as inhibition of early-phase tactile allodynia by measuring pain sensitivity threshold at 15 mg/kg administered with compound intraperitoneally at 3 hrs after oxaliplatin stimulation and measured after 30 mins by von Frey test (reference value: 61.2 %); format: functional; parameters: scale not given: the % may be the effect or the level left; conditions: 0.5 h
Mus musculus [17] = assay: as §1, with “30” for “15”; format: functional; parameters: scale not given: the % may be the effect or the level left; conditions: 0.5 h
Mus musculus [18] = assay: as §1, with “late-phase” for “early-phase”, “7 days” for “3 hrs”, “65.3%)” for “61.2 %)”; format: functional; parameters: scale not given: the % may be the effect or the level left; conditions: 0.5 h
Mus musculus [19] = assay: as §1, with “late-phase” for “early-phase”, “22.5” for “15”, “7 days” for “3 hrs”, “65.3%)” for “61.2 %)”; format: functional; parameters: scale not given: the % may be the effect or the level left; conditions: 0.5 h
Mus musculus [20] = assay: as §1, with “late-phase” for “early-phase”, “30” for “15”, “7 days” for “3 hrs”, “65.3%)” for “61.2 %)”; format: functional; parameters: scale not given: the % may be the effect or the level left; conditions: 0.5 h
Rattus norvegicus [21] = assay: Memory enhancement effect in dizocilpine-induced Wistar (Krf:WI) rat model of amnesia assessed as increase in step through latency administered with compound intraperitoneally and measured after 30 to 45 mins by step-through passive avoidance test; format: functional, organism-based; conditions: dose 1.25-5 mg/kg, time 30-45 min
Rattus norvegicus [22] = assay: Memory enhancement effect in dizocilpine-induced Wistar (Krf:WI) rat model of amnesia assessed as decrease in transfer latency time at 1.25 to 5 mg/kg, ip measured after 30 to 45 mins by elevated plus maze test; format: functional, organism-based; conditions: dose 1.25-5 mg/kg, time 30-45 min
[23] = molecular target: Acetylcholinesterase (Electrophorus electricus) (UniProt O42275); assay: Non-competitive inhibition of Electric eel AChE using ATCI as substrate incubated for 5 mins followed by substrate addition and measured after 5 mins by spectrophotometric based Cornish-Bowden plot analysis; conditions: time 10.0 min
Sequence of Acetylcholinesterase (Electrophorus electricus) (O42275 24-633 limits assumed): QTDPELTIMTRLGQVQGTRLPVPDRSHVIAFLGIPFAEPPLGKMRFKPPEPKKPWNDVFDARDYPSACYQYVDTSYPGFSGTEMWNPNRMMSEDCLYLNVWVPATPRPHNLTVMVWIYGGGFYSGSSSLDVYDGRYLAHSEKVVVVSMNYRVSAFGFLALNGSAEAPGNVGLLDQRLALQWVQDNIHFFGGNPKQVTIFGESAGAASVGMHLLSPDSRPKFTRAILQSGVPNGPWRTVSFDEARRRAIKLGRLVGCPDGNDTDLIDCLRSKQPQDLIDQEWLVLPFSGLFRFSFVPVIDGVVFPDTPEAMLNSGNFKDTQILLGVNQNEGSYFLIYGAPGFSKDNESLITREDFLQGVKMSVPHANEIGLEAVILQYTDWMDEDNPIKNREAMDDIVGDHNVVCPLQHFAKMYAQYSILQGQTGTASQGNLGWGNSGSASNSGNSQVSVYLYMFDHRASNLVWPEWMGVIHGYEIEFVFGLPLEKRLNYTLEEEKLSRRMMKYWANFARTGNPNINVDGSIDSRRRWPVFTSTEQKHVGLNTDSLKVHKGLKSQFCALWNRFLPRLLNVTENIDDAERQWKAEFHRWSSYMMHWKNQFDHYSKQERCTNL

Acetylcholinesterase [24] = molecular target: Acetylcholinesterase (Electrophorus electricus, UniProt O42275)
Sequence of Acetylcholinesterase (Electrophorus electricus, UniProt O42275) (O42275 whole entry): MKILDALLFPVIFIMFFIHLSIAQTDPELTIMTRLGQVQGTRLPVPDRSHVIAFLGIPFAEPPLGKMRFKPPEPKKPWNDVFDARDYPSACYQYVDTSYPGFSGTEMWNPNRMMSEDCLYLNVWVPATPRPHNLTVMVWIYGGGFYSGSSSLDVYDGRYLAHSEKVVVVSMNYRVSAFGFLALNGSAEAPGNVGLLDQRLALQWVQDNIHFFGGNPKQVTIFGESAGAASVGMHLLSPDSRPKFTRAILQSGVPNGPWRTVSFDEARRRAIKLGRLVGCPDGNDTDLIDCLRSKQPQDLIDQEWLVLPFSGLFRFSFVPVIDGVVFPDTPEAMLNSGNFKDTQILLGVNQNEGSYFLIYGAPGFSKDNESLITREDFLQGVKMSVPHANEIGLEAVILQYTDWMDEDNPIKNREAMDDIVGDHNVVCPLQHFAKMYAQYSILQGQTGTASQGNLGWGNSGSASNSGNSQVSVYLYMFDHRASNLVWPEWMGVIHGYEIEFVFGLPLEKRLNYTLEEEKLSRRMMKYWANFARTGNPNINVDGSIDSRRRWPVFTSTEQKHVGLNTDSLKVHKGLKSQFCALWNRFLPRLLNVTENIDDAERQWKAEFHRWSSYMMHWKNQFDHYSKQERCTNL
Description: Inhibition of Electric eel AChE using ATCI as substrate incubated for 5 mins followed by substrate addition and measured after 5 mins by spectrophotometric based Ellman's method

Cholinesterase = Cholinesterase (Homo sapiens, UniProt P06276)
Sequence of Cholinesterase (P06276 whole entry): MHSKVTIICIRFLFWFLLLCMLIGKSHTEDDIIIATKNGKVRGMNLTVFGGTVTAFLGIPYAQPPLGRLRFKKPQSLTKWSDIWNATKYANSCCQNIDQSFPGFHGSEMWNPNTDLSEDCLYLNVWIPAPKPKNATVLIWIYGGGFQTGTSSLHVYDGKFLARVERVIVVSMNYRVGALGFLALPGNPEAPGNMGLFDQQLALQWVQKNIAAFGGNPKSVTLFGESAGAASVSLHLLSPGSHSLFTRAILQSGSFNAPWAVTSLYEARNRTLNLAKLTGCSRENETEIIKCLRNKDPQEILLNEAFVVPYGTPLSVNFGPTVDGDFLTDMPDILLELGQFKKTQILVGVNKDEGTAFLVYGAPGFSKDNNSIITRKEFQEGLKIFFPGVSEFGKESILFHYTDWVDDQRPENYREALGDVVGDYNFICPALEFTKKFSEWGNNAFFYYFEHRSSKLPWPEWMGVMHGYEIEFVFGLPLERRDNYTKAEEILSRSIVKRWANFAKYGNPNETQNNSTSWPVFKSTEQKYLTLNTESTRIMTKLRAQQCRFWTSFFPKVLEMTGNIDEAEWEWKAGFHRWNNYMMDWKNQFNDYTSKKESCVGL
Description: Inhibition of human BuChE by spectrophotometric based Ellman's method

in vitro = conditions: PAMPA, pH 7.4
Description: Permeability of compound in PBS buffer assessed as permeability coefficient at pH 7.4 at 200 uM incubated for 5 hrs by PAMPA based LC-MS analysis

## O=c1c2ccccc2oc2ccc(OCCCCCN3CCCCCC3)cc12
MAO-A
  inhibition at 10 µM: < 50%
Acetylcholinesterase [1]
  pIC50: 6.41
Mus musculus [2]
  ED50: 11.3 mg/kg
Rattus norvegicus [3]
  inhibition in vivo at 22.5 mg/kg: 36.1%
Rattus norvegicus [4]
  inhibition in vivo at 22.5 mg/kg: 32.8%
Rattus norvegicus [5]
  inhibition in vivo at 22.5 mg/kg: 26.5%
Rattus norvegicus [6]
  inhibition in vivo at 22.5 mg/kg: 19.4%
Rattus norvegicus [7]
  inhibition in vivo at 30 mg/kg: 77.9%
Rattus norvegicus [8]
  inhibition in vivo at 30 mg/kg: 53.3%
Rattus norvegicus [9]
  inhibition in vivo at 30 mg/kg: 52.1%
Rattus norvegicus [10]
  inhibition in vivo at 30 mg/kg: 44.9%
Rattus norvegicus [11]
  inhibition in vivo at 30 mg/kg: 57.8%
Rattus norvegicus [12]
  Activity: 118%
Rattus norvegicus [13]
  Activity: 94.6%
Rattus norvegicus [14]
  Activity: 130%
Rattus norvegicus [15]
  Activity: 116%
Mus musculus [16]
  Activity: 88.5%
Mus musculus [17]
  Activity: 95.6%
Mus musculus [18]
  Activity: 85.9%
Mus musculus [19]
  Activity: 88.5%
Mus musculus [20]
  Activity: 100%
Rattus norvegicus [21]
  Activity: Dose-dependent effect
Rattus norvegicus [22]
  Activity: Active
[23]
  inhibition: Active
Acetylcholinesterase [24]
  pIC50: 6.74
Cholinesterase
  pIC50: 5.89
In vitro
  Papp at 5 h, 200 µM: 5.6 ×10⁻⁶ cm/s
